This note sets out measurements from patent US20250345277A1, “Ionizable Liposome, Preparation Thereof, and Application Thereof in Gene Delivery” (MAXIRNA (ZHEJIANG) TECHNOLOGY CO. LTD., priority 2021, published 2025).

One series relates to DC2.4 cells. As to the kind of experiment: In vitro transfection of DC2.4 cells with EGFP mRNA LNP preparation (flow cytometry). Format: cell-based, mouse. The conditions noted are these: DC2.4 cells. The source says: The description is based on peripheral blood mononuclear cells PBMC (Shanghai Oribiotech Co., Ltd.), human peripheral blood leukemia T cell Jurkat (ATCC), tumor infiltrating lymphocyte TIL (isolated from resected tumor tissue of a liver cancer patient, the preparation method refers to CN114763530A), mouse bone marrow-derived dendritic cells DC2.4 (Cell Bank of the Chinese Academy of Sciences), and Chinese hamster ovary cells CHO (ATCC) were used as verified cell lines for liposome transfection. PBMC, Jurkat, and TIL cells grew in suspension, while DC2.4 and CHO cells grew by adherent culture. All the operation steps of cell culture must strictly abide by the prescribed procedures, and sterile reagents is used to perform aseptic operations under a sterile workbench. The main steps are as follows: • 1) Cell recovery: the preserved cell cryopreservation solution was taken out of the −80° C. refrigerator, and was immediately put in a 37° C. water bath for rapid and continuous shaking, and was completely melted within one minute. Fresh medium was added to the 15 mL centrifuge tube in advance, and the cell solution was added to the centrifuge tube in a biological safety cabinet. A centrifuge tube of the same quality was taken and placed symmetrically in a centrifuge, centrifuged at a low speed at 1200 rpm for 5 min. After centrifugation, the supernatant was removed, and an appropriate amount of medium was slowly added along the tube wall. After the cells were evenly dispersed by blowing gently, the cell suspension was pipette and added to the culture bottle prepared in advance. The state and distribution of the cells in the early stage of recovery were observed under a microscope. The culture bottle was placed in a 5% CO2 incubator and incubated at 37° C., and the recovery time was recorded. • 2) Cell subculture: Under the microscope, if the cell density in the field of view reaches 80%-90%, the cells can be subcultured. Adherent cells need to be digested with trypsin. In order to avoid the residual serum in the culture medium to reduce the activity of trypsin, DPBS solution was added to wash once after removing the original culture medium. After remove the DPBS solution, trypsin was added to degrade the protein at the junction between cells. This separates the cells for further culture. The cells were gently shaked evenly and put into the incubator for digestion for 2 min. Immediately after the digestion was completed, an appropriate amount of medium was added to the original petri dish to terminate the digestion. Finally, the cells were carefully blowed off using a pipette and blowed until they are evenly dispersed, and then inoculated and subcultured at a certain ratio according to the experimental requirements. […]
• 1) DC2.4 cells recovery: the frozen DC2.4 cells were taken out from the −80° C. refrigerator, put in a 37° C. water bath to quickly thaw the cells, added to the preheated medium after thawing, centrifuged at 1200 rpm for 5 min, the supernatant was discarded, and an appropriate amount of DMEM medium with 10% FBS was added to resuspend the recovered DC2.4, and placed in a 5% CO2 incubator at 37° C. for activation and culture. • 2) According to the experimental arrangement, DC2.4 cells were plated on a 24-well plate one day in advance for cell transfection. Through cell counting, the number of cells and cell viability were recorded, the cell suspension were taken at 2×10^5 cells per well, then a certain volume of DMEM medium containing 10% FBS was added and mixed evenly, 1 mL of mixture was added to each well for subsequent transfection experiment. • 3) After 24 hours, the medium was gently removed 30 minutes in advance by a pipette, 1 mL DPBS was added to each well for washing and then removed, then 300 μL serum-free Opti-MEM medium was added to each well for subsequent transfection experiments.
Subsequent steps are the same as the transfection protocol for PBMC cells. […]
A general note: A flow cytometer gives signals particle by particle.

A short description of series [1]: Size and polydispersity index PDI of lipid nanoparticles (Malvern Zetasizer Nano ZS). The note with it: LNP ionizable lipid/DOPE/cholesterol/DSPE-PEG2000 35/16/46.5/2.5 mol% encapsulating EGFP mRNA. Format: physicochemical. The procedure: (§1) The ionizable lipid compound of Example 1 was dissolved in ethanol with DOPE, cholesterol and DSPE-PEG2000 (all purchased from AVT (Shanghai) Pharmaceutical Technology Co., Ltd.) at a molar ratio of 35:16:46.5:2.5 to prepare ethanol lipid solution, and enhanced green fluorescent protein (EGFP) mRNAs (Shanghai Maximna Pharmaceutical Engineering Co., Ltd., JN-4201) were diluted in 20 mM citrate buffer (pH=6.1) to obtain mRNA aqueous solution. Ethanol lipid solution and mRNA aqueous solution were mixed at a volume ratio of 1:3 by using a microfluidic device (Micro&Nano (Shanghai) Instrument Technology Co., Ltd., model: INano™ML), LNPs were prepared with a weight ratio of approximately 10:1 between total lipids and mRNAs. The medium was replaced by ultrafiltration, ethanol was removed and volumed with DPBS. Finally, the lipid nanoparticles were filtered through a 0.2 μm sterile filter to obtain a LNP formulation encapsulating eGFP mRNA using ionizable lipid/DOPE/cholesterol/DSPE-PEG2000 (35/16/46.5/2.5 mol %), the concentration of mRNAs being 0.002 mg/mL-0.5 mg/mL.
Using Malvern Zetasizer Nano ZS (Malvern UK), the size and polydispersity index PDI of lipid nanoparticles were measured at […].

A short description of series [2]: Entrapment efficiency of LNP preparation encapsulating EGFP mRNA. The note with it: LNP ionizable lipid/DOPE/cholesterol/DSPE-PEG2000 35/16/46.5/2.5 mol% encapsulating EGFP mRNA. The format is physicochemical. As for the experimental part:
as §1, with “mg/mL. […]” for “mg/mL.”

Setting [3] is: EGFP mRNA LNP, 200 ng mRNA per well, flow cytometry.

The structures appear in SMILES notation.

Consider `CCCCCCCCCCCCCCCCC(O)CN(CCOCCOCCOCCN(CCOCCOCCOCCN(CC(O)CCCCCCCCCCCCCCCC)CC(O)CCCCCCCCCCCCCCCC)CCN1CCN(CCO)CC1)CC(O)CCCCCCCCCCCCCCCC` [L-C18], for which, in the series on DC2.4 cells (setting [3]), the “Cell Viability” value turned out to be 98.6% and the “Positive Rate (EGFP)” value was 59.7%. Moreover, the “Fluorescence Intensity” value with DC2.4 cells (EGFP mRNA expression level, normalized based on the sample with the highest fluorescence intensity) is listed as 0.02. In series [1], this compound gave a PDI of 0.182. Moreover, the “Particle Size” value in series [1] (in nm (unit assumed)) is given as 124.0. Further, the “Entrapment Efficiency” value in series [2] was determined as 91.70%.
